# Molecular target: Human Factor D (Homo sapiens (Human), UniProt P00746)
# Assay: Human Factor D Assay
# Format: biochemical
# Conditions: Table 6; Factor D 80 nM, substrate Z-L-Lys-SBz; read-out: IC50
# Outline: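 Serum-purified Factor D (80 nM final) preincubated 5 min at room temperature with compound in 50 mM Tris, 1 M NaCl, pH 7.5. Z-L-Lys-SBz and DTNB added at 100 μM each; A405 followed every 30 s for 30 min. IC50 from nonlinear regression of rates versus concentration.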
# Sequence of Human Factor D (P00746 26-253): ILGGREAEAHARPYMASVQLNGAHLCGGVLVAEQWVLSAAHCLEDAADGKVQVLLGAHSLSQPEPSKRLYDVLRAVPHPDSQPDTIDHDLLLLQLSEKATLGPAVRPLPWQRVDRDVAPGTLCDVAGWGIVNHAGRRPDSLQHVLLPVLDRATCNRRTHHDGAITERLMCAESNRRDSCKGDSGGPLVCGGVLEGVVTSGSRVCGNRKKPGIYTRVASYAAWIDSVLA
row,SMILES,IC50
1,"CC(=O)c1nn(CC(=O)N2[C@H](C(=O)Nc3cccc(O)n3)C[C@@]3(C)C[C@@H]23)c2c(C)cc(-c3cnc(C)nc3)cc12 [Compound 105, (1R,3S,5R)-2-(2-(3-Acetyl-7-methyl-5-(2-methylpyrimidin-5-yl)-1H-indazol-1-yl)acetyl)-N-(6-hydroxypyridin-2-yl)-5-methyl-2-azabicyclo[3.1.0]hexane-3-carboxamide]",< 1 µM
2,"COc1ncc(-c2ccc3c(c2)c(C(C)=O)nn3CC(=O)N2[C@H](C(=O)Nc3cccc(Br)n3)C[C@@]3(C)C[C@@H]23)cn1 [Compound 108, (1R,3S,5R)-2-(2-(3-Acetyl-5-(2-methoxypyrimidin-5-yl)-1H-indazol-1-yl)acetyl)-N-(6-bromopyridin-2-yl)-5-methyl-2-azabicyclo[3.1.0]hexane-3-carboxamide]",< 1 µM
3,"CC(=O)c1nn(CC(=O)N2C[C@H]3C[C@H]3[C@H]2C(=O)O)c2c(C)cc(-c3cnc(C)nc3)cc12 [Compound 111, (1R,2S,5S)-3-(2-(3-acetyl-7-methyl-5-(2-methylpyrimidin-5-yl)-1H-indazol-1-yl)acetyl)-3-azabicyclo[3.1.0]hexane-2-carboxylic acid]",> 10 µM
4,"CC(=O)c1nn(CC(=O)N2[C@H](C(=O)Nc3nc(Br)ccc3C3CC3)C[C@@]3(CN(C)C)C[C@@H]23)c2ccc(-c3cnc(C)nc3)cc12 [Compound 112, (1R,3S,5R)-2-(2-(3-Acetyl-5-(2-methylpyrimidin-5-yl)-1H-indazol-1-yl)acetyl)-N-(6-bromo-3-cyclopropylpyridin-2-yl)-5-((dimethylamino)methyl)-2-azabicyclo[3.1.0]hexane-3-carboxamide]",< 1 µM
5,"CC(=O)c1nn(CC(=O)N2[C@H](C(=O)Nc3nc(Br)ccc3C)C[C@@]3(CNCCF)C[C@@H]23)c2c(C)cc(-c3cnc(C)nc3)cc12 [Compound 113, (1R,3S,5R)-2-(2-(3-Acetyl-7-methyl-5-(2-methylpyrimidin-5-yl)-1H-indazol-1-yl)acetyl)-N-(6-bromo-3-methylpyridin-2-yl)-5-((2-fluoroethylamino)methyl)-2-azabicyclo[3.1.0]hexane-3-carboxamide]",< 1 µM
6,"COCc1cc(-c2cnc(C)nc2)cc2c(C(C)=O)nn(CC(=O)N3[C@H](C(=O)Nc4nc(Br)ccc4C)C[C@@]4(COC)C[C@@H]34)c12 [Compound 114, (1R,3S,5S)-2-(2-(3-Acetyl-7-(methoxymethyl)-5-(2-methylpyrimidin-5-yl)-1H-indazol-1-yl)acetyl)-N-(6-bromo-3-methylpyridin-2-yl)-5-(methoxymethyl)-2-azabicyclo[3.1.0]hexane-3-carboxamide]",< 1 µM
7,"Cc1ncc(-c2cc(C)c3c(c2)c(C(C)O)nn3CC(=O)N2C[C@H]3C[C@H]3[C@H]2C(=O)Nc2nc(Br)ccc2C)cn1 (stereo partly drawn) [Compound 115, (1R,2S,5S)-N-(6-bromo-3-methylpyridin-2-yl)-3-(2-(3-(1-hydroxyethyl)-7-methyl-5-(2-methylpyrimidin-5-yl)-1H-indazol-1-yl)acetyl)-3-azabicyclo[3.1.0]hexane-2-carboxamide]",1 to 10 µM
8,"CC(=O)c1nn(CC(=O)N2[C@H](C(=O)Nc3cc(F)cc(Br)n3)C[C@@]3(C)C[C@@H]23)c2c(C)cc(-c3cnc(C)nc3)cc12 [Compound 116, (1R,3S,5R)-2-(2-(3-Acetyl-7-methyl-5-(2-methylpyrimidin-5-yl)-1H-indazol-1-yl)acetyl)-N-(6-bromo-4-fluoropyridin-2-yl)-5-methyl-2-azabicyclo[3.1.0]hexane-3-carboxamide]",< 1 µM
9,"CC(=O)c1nn(CC(=O)N2C[C@H](F)C[C@H]2C(=O)Nc2nc(Br)ccc2CC(=O)N(C)C)c2ccc(-c3cnc(C)nc3)cc12 [Compound 117, (2S,4R)-1-(2-(3-Acetyl-5-(2-methylpyrimidin-5-yl)-1H-indazol-1-yl)acetyl)-N-(6-bromo-3-(2-(dimethylamino)-2-oxoethyl)pyridin-2-yl)-4-fluoropyrrolidine-2-carboxamide]",< 1 µM
10,"CCN(CC)C[C@@]12C[C@@H](C(=O)Nc3nc(Br)ccc3C)N(C(=O)Cn3nc(C(C)=O)c4cc(-c5cnc(C)nc5)cc(C)c43)[C@@H]1C2 [Compound 118, (1R,3S,5R)-2-(2-(3-Acetyl-7-methyl-5-(2-methylpyrimidin-5-yl)-1H-indazol-1-yl)acetyl)-N-(6-bromo-3-methylpyridin-2-yl)-5-((diethylamino)methyl)-2-azabicyclo[3.1.0]hexane-3-carboxamide]",< 1 µM
11,"CC(=O)c1nn(CC(=O)N2[C@H](C(=O)Nc3nc(Br)ccc3C)C[C@@]3(CN4C[C@H]5CCC[C@H]5C4)C[C@@H]23)c2ccc(-c3cnc(C)nc3)cc12 [Compound 119, (1R,3S,5R)-2-(2-(3-Acetyl-5-(2-methylpyrimidin-5-yl)-1H-indazol-1-yl)acetyl)-N-(6-bromo-3-methylpyridin-2-yl)-5-(((3aR,6aS)-hexahydrocyclopenta[c]pyrrol-2(1H)-yl)methyl)-2-azabicyclo[3.1.0]hexane-3-carboxamide]",< 1 µM
12,"CNc1ncc(-c2ccc3c(c2)c(C(C)=O)nn3CC(=O)N2[C@H](C(=O)Nc3nc(Br)ccc3C)C[C@@]3(C)C[C@@H]23)cn1 [Compound 120, (1R,3S,5R)-2-(2-(3-Acetyl-5-(2-(methylamino)pyrimidin-5-yl)-1H-indazol-1-yl)acetyl)-N-(6-bromo-3-methylpyridin-2-yl)-5-methyl-2-azabicyclo[3.1.0]hexane-3-carboxamide]",< 1 µM
13,"C=CCCCCN(C)C[C@@]12C[C@@H](C(=O)Nc3nc(Br)ccc3C=C)N(C(=O)Cn3nc(C(C)=O)c4cc(-c5cnc(C)nc5)ccc43)[C@@H]1C2 [Compound 123, (1R,3S,5R)-2-(2-(3-Acetyl-5-(2-methylpyrimidin-5-yl)-1H-indazol-1-yl)acetyl)-N-(6-bromo-3-vinylpyridin-2-yl)-5-((hex-5-en-1-yl(methyl)amino)methyl)-2-azabicyclo[3.1.0]hexane-3-carboxamide]",< 1 µM
14,"CC(=O)c1nn(CC(=O)N2[C@H](C(=O)Nc3nc(Br)ccc3C)C[C@@]3(C)C[C@@H]23)c2c(C#N)cc(-c3cnc(C)nc3)cc12 [Compound 124, (1R,3S,5R)-2-(2-(3-Acetyl-7-cyano-5-(2-methylpyrimidin-5-yl)-1H-indazol-1-yl)acetyl)-N-(6-bromo-3-methylpyridin-2-yl)-5-methyl-2-azabicyclo[3.1.0]hexane-3-carboxamide]",< 1 µM
15,"CC(=O)c1nn(CC(=O)N2[C@H](C(=O)Nc3nc(Br)ccc3C)C[C@@]3(C)C[C@@H]23)c2ccc(-c3cnc(N(C)C)nc3)cc12 [Compound 125, (1R,3S,5R)-2-(2-(3-Acetyl-5-(2-(dimethylamino)pyrimidin-5-yl)-1H-indazol-1-yl)acetyl)-N-(6-bromo-3-methylpyridin-2-yl)-5-methyl-2-azabicyclo[3.1.0]hexane-3-carboxamide]",< 1 µM
16,"CC(=O)c1nn(CC(=O)N2[C@H](C(=O)O)C[C@@]3(C)C[C@@H]23)c2c(C)cc(-c3cnc(C)nc3)cc12 [Compound 126, (1R,3S,5R)-2-(2-(3-acetyl-7-methyl-5-(2-methylpyrimidin-5-yl)-1H-indazol-1-yl)acetyl)-5-methyl-2-azabicyclo[3.1.0]hexane-3-carboxylic acid]",> 10 µM
17,"CC(=O)c1nn(CC(=O)N2[C@H](C(=O)Nc3nc(Br)ccc3C)C[C@@]3(CN4CC5(COC5)C4)C[C@@H]23)c2c(C)cc(-c3cnc(C)nc3)cc12 [Compound 127, (1R,3S,5R)-5-(2-Oxa-6-azaspiro[3.3]heptan-6-ylmethyl)-2-(2-(3-acetyl-7-methyl-5-(2-methylpyrimidin-5-yl)-1H-indazol-1-yl)acetyl)-N-(6-bromo-3-methylpyridin-2-yl)-2-azabicyclo[3.1.0]hexane-3-carboxamide]",< 1 µM
18,"CC(=O)c1nn(CC(=O)N2[C@H](C(=O)Nc3nc(Br)ccc3C)C[C@@]3(CN4C[C@H]5CCC[C@H]5C4)C[C@@H]23)c2c(C)cc(-c3cnc(C)nc3)cc12 [Compound 128, (1R,3S,5R)-2-(2-(3-Acetyl-7-methyl-5-(2-methylpyrimidin-5-yl)-1H-indazol-1-yl)acetyl)-N-(6-bromo-3-methylpyridin-2-yl)-5-(((3aR,6aS)-hexahydrocyclopenta[c]pyrrol-2(1H)-yl)methyl)-2-azabicyclo[3.1.0]hexane-3-carboxamide]",< 1 µM
19,"CC(=O)c1nn(CC(=O)N2[C@H](C(=O)Nc3nc(Br)ccc3C)C[C@@]3(CN4CC5(CCCC5)C4)C[C@@H]23)c2c(C)cc(-c3cnc(C)nc3)cc12 [Compound 129, (1R,3S,5R)-5-(2-Azaspiro[3.4]octan-2-ylmethyl)-2-(2-(3-acetyl-7-methyl-5-(2-methylpyrimidin-5-yl)-1H-indazol-1-yl)acetyl)-N-(6-bromo-3-methylpyridin-2-yl)-2-azabicyclo[3.1.0]hexane-3-carboxamide]",< 1 µM
20,"CC(=O)c1nn(CC(=O)N2[C@H](C(=O)Nc3nc(Br)ccc3C)C[C@@]3(C)C[C@@H]23)c2ccc(-c3cnc(C)nc3)c(F)c12 [Compound 130, (1R,3S,5R)-2-(2-(3-Acetyl-4-fluoro-5-(2-methylpyrimidin-5-yl)-1H-indazol-1-yl)acetyl)-N-(6-bromo-3-methylpyridin-2-yl)-5-methyl-2-azabicyclo[3.1.0]hexane-3-carboxamide]",< 1 µM
21,"CC(=O)c1nn(CC(=O)N2[C@H](C(=O)Nc3nc(Br)ccc3C)C[C@@]3(C)C[C@@H]23)c2c(C3CC3)cc(-c3cnc(C)nc3)cc12 [Compound 131, (1R,3S,5R)-2-(2-(3-Acetyl-7-cyclopropyl-5-(2-methylpyrimidin-5-yl)-1H-indazol-1-yl)acetyl)-N-(6-bromo-3-methylpyridin-2-yl)-5-methyl-2-azabicyclo[3.1.0]hexane-3-carboxamide]",< 1 µM
22,"CCNC[C@@]12C[C@@H](C(=O)Nc3nc(Br)ccc3C)N(C(=O)Cn3nc(C(C)=O)c4cc(-c5cnc(C)nc5)cc(C)c43)[C@@H]1C2 [Compound 132, (1R,3S,5R)-2-(2-(3-Acetyl-7-methyl-5-(2-methylpyrimidin-5-yl)-1H-indazol-1-yl)acetyl)-N-(6-bromo-3-methylpyridin-2-yl)-5-((ethylamino)methyl)-2-azabicyclo[3.1.0]hexane-3-carboxamide]",< 1 µM
